Data published in patent US12274689B2, “Compound for the management of feline diabetes” (INCREVET, INC., priority 2019, dated 2025).

Test system: client-owned cats diagnosed with diabetes mellitus
Experiment: field effectiveness study in client-owned diabetic cats
Assay type: in vivo, cat
Set-up: mean serum glucose: unit: mg/dL
Description: In a field effectiveness study, client-owned cats that had been diagnosed with diabetes mellitus based on: i) two separate fasting (≥6 h) blood glucose measurements>250 mg dL^−1; ii) glucosuria; iii) fructosamine>450 μmol L^−1 (subsequently changed to >360 μmol L^−1 due to a change in the testing laboratory methodology), and iv) one or more of the following: polyuria/polydipsia, polyphagia and/or weight loss (documented in the cat's medical records) were enrolled. Cats with suspected diabetes mellitus were evaluated during visit 1 (within 7 days prior to day 0). […] Cats were prescribed a diet for diabetic animals (Purina DM, either dry or wet variety). Cats were returned to the clinic for evaluation of glycemic control during visits 3 (day 14±3), 4 (day 28±3), and 5 (day 56±3). The treatment period was from visit 2 (day 0) through visit 5 (day 56±3). A cat could have been brought back to the clinic at any time for unscheduled visits if such visits were determined to be necessary by the owner or investigator. Eight-hour blood glucose curves (blood samples collected every 2 h±15 min for 8 h) were conducted at every visit starting with visit 2 (day 0) and blood glucose was measured using an AlphaTRAK 2 glucometer (Abbott Laboratories). Blood samples for hematology and serum chemistry were collected at screening and during each scheduled visit after initiation of dosing. A central laboratory was used to evaluate all clinical pathology samples (blood, serum, and urine) that are not analyzed in the clinic for blood glucose curves.
Serum chemistries included assessment of fructosamine. […] To accommodate the change in reference range, data were harmonized by expression as a percentage of the upper limit of normal and log-transformed percentages were analyzed by repeated measures ANCOVA with an unstructured covariance and visit as a fixed effect. The upper limit of normal for the testing laboratory for fasting serum glucose was 155 mg dL^−1. The data below were tabulated after 32 cats completed the day 56 visit.
Each cat was classified as having achieved (or not achieved) glycemic control on Day 56±3 (success/failure). Treatment success was defined as improvement of at least one blood glucose variable (BG mean<250 mg dL^−1; or fructosamine<450 μmol/L or <360 μmol/L, depending on the assay reference range at the time of the analysis), and the veterinarian's assessment of adequate glycemic control at the final evaluation. All cats that remained on-study to V5 were considered treatment successes. Of the 8 cats that were considered treatment failures, 6 cats were removed from the study following an SAE, 1 cat was removed at the sponsor's request, and 1 cat was removed due to the use of a study-proscribed medication to treat an AE. Table 3 also tallies the cats achieving a fructosamine concentration less than the upper limit of normal (356 μmol L^−1 initially and 275 μmol L^−1 subsequently).
Responsibility for assessing clinical signs of diabetes mellitus was divided between owners and treating veterinarians. Weight was recorded at each visit by the veterinarian, and the signs of polydipsia, polyuria and polyphagia were recorded at each visit by the owner, using a four-point (0 to 3) integer score in which low scores represented favorable ratings.
In addition to providing a measure of the status of the cat as a function of time, the quantitative assessments were used to produce a binary outcome of success or failure at study completion. To score as a success by weight, the weight at Visit 5 was to exceed the weight at Visit 2 (treatment initiation). To score as success by the other signs the owner score at visit 5 was to be less than the owner score at Visit 2.
Glucose curves were constructed by glucometer measurement of blood sampled at hours 0, 2, 4, 6 and 8 post-dose. […]

[1] = by visit, non-parametric test highly significant

SMILES: OC[C@H]1O[C@@H](c2ccc(Cl)c(Cc3ccc(OCCOC4CC4)cc3)c2)[C@H](O)[C@@H](O)[C@@H]1O [bexagliflozin, (2S,3R,4R,5S,6R)-2-(4-chloro-3-(4-(2-cyclopropoxyethoxy)benzyl)phenyl)-6-(hydroxymethyl)tetrahydro-2H-pyran-3,4,5-triol]
- treatment effect on the gain in body mass per cat (baseline to week 8, p<0.0001): highly significant
- cats that either maintained or increased their weight (by day 56): 82%
- mean owner scores for polydipsia [1]: declined
- mean owner scores for polyuria [1]: declined
- mean owner scores for polyphagia (by visit, non-parametric test significant): declined
- weight of case 5 at study end (case 5, decreased from 5.4 kg): 5.1 kg
- treatment outcome of cats with IGF-1 above the upper limit of normal (92 nmol/L) (cases 7, 28 and 30, V5): All three cases were considered treatment successes
- symptomatic hypoglycemia (diabetic cats, field study): None of the cats exhibited a symptomatic hypoglycemia
- Veterinarian Glycemic Control Criteria Met (individual cats, V5): Yes
- Mean BG Criteria Met (individual cats, V5, BG mean <250 mg dL^−1): Yes
- cats removed from the study following an SAE (of 40 cats enrolled): 6 cats
- Any Success, Col Sum (number of cats) (of 40 enrolled cats): 31
- Non-Weight Success, Col Sum (number of cats) (of 40 enrolled cats): 30
- Polydipsia Success, Col Sum (number of cats) (of 40 enrolled cats): 23
- Polyphagia Success, Col Sum (number of cats) (of 40 enrolled cats): 17
- Polyuria Success, Col Sum (number of cats) (of 40 enrolled cats): 24
- Weight Success, Col Sum (number of cats) (of 40 enrolled cats): 22
- cats achieving a fructosamine concentration below the upper limit of normal (of the 32 cats completing the study): 26 cats
- average cat weight (over the course of the study): increased
- cats considered treatment successes (thirty-two of the 40 cats enrolled, Day 56±3): 80%
- fructosamine of cats with elevated IGF-1 (three cats with elevated serum IGF-1): achieved a normal fructosamine concentration
- mean serum β-hydroxybutyrate concentration (week 8, 95% CI 1.40, 2.20, upper limit of normal 1.9 mg dL^−1): 1.76 mg/dL
- mean serum fructosamine, % of the upper limit of normal (week 8, 95% CI 80.0%, […]): 86.7%
- mean serum glucose (week 8, 95% CI 127, 163): 144
- mean of the five blood glucose determinations (week 8, in-clinic blood glucose curve, 95% CI 102.8, 128.4): 114.9 mg/dL
